{
  "source": "patent US20030199516A1",
  "about": "“Methods of treating infection by drug resistant bacteria” (Genesoft, Inc., priority 2001, published 2003)",
  "key": {"[1]": {"tested_on": "Candida albicans ATCC 38247", "assay": "Antifungal MIC", "type": "cell-based", "settings": "Col. F = C. albicans ATCC 38247", "excerpt": "(§1) In vitro antibacterial activity data were collected for the following Gram-positive bacteria: Staphylococcus aureus (ATCC 27660, ATCC 33591 and ATCC 43300, all methicillin resistant strains (MRSA's)); Streptococcus pneumoniae (ATCC 51422, a penicillin resistant strain (PRSP)), Enterococcus faecium (ATCC 51559, and/or a vancomycin resistant strain (VRE)). Additionally, antifungal activity data were collected for Candida albicans (ATCC 38247). Minimal inhibition concentrations (MIC's) were determined using the National Committee for Clinical Laboratory Standards (NCCLS) broth microdilution assay in microtiter plates, as set forth in: (1) the guidelines of the National Committee for Clinical Laboratory Standards (NCCLS) Document M7-A4 (NCCLS, 1997); (2) the guidelines of the National Committee for Clinical Laboratory Standards (NCCLS) Document M11-A4 (NCCLS, 1997); and (3) the guidelines and reference method of the National Committee for Clinical Laboratory Standards (NCCLS) Document M27-T (NCCLS, 1995). For antifungal essays, the method recommended in Murray, PR., 1995 Manual of Clinical Microbiology (ASM Press, Washington, D.C.), was employed."}, "[2]": {"target": "target sequence TGACAATTAAT (352 bp fragment, Plasmid C)", "assay": "Quantitative DNase I footprint titration", "type": "binding", "settings": "352 bp C, 22° C., pH 7.0, read-out: Dissociation Constant Kd", "excerpt": "(§2) Compounds (1) through (20) according to this invention were screened for their ability to bind to specified DNA target sequences, using DNase I footprinting. Generally, the procedure described in Dervan, WO 98/50582 (1998), was followed.\n(§3) Three double stranded circular plasmids A, B, and C were used to prepare double stranded DNA-binding probes containing the target sequences for the DNase I footprint titration experiments. Plasmids A, B, and C had nucleotide sequences given by SEQ ID NO. I, SEQ ID NO. II, and SEQ ID NO. III, respectively.\n(§4) The 3′-P32 end-labeled EcoRI/PvuII fragments from each plasmid were prepared by digesting the plasmids with EcoRI and PvuII with simultaneous fill-in using Sequenase v. 2.0, [alpha-P32]-deoxyadenosine-5′-triphosphate, and [alpha-P32]-thymidine-5′-triphosphate, and isolating the cloned fragments by nondenaturing gel electrophoresis. A and G sequencing reactions were carried out as described (See Maxam and Gilbert, Methods Enzymol., 1980, 65, 499-560; Iverson and Dervan, Methods Enzymol., 1987, 15, 7823-7830; Sambrook et al., 1989, Molecular Cloning, 2nd ed., Cold Spring Harbor Laboratory Press: Cold Spring Harbor, N.Y.) Standard methods were used for all DNA manipulations (Sambrook et al., ibid.) The cut sites for EcoRI and PvuII are indicated by bars in the respective maps of Plasmids A, B, and C in FIGS. 5, 6, and 7.\n(§5) The 351 base pair dsDNA restriction fragment (SEQ ID NO. IV) of Plasmid A contained the target sequences AAAAAGCAAAAA, AAAAAGACAAAAA, and AAAAAGTACAAAAA. The 310 base pair dsDNA restriction fragment (SEQ ID NO. V) of Plasmid B contained the target sequences AGTACT, AATACT, and ATTACT. The 352 base pair dsDNA restriction fragment (SEQ ID NO. VI) of Plasmid C contained the target sequences TGACAATTAAT, GACAATTAATCA, AATTAATCAT, ACAATTA, and ACAATTAAT. These fragments were used for quantitative DNase I footprinting experiments. Compounds used in the method of this invention bind to at least one of the target sites with a equal to or less than 100 nM, preferably equal to or less than 50 nM, and more preferably equal to or less than 20 nM. The target sequences were selected for the identity with, or similarity to, promoter sites for bacterial genes.\n(§6) Quantitative DNase I footprint titration experiments were carried out as described previously (Dervan, WO 98/50582, 1998) with the following changes. All reactions were carried out in a total volume of 400 μL, with compound stock solution or water added to 15,000 cpm radiolabeled restriction fragment affording final solution conditions of 10 mM Tris HCl, 10 mM KCl, 10 mM MgCl2, 5 mM CaCl2, pH 7.0 and 0.01 nM, 0.1 nM, 1.0 nM, 10.0 nM compound or no compound for reference lanes. The compounds were allowed to equilbrate at 22° C. for 16 h. Footprinting reactions were initiated with addition of 10 μL of a DNase I stock solution (at the appropriate concentration to give ˜50% intact DNA) containing 1 mM DTT and allowed to proceed for 7 min at 22° C. The reactions were stopped, ethanol precipitated, resuspended in loading buffer, heat denatured, and placed on ice as described previously (Dervan WO 98/50582, 1998). The reaction products were separated on a precast 8% polyacrylamide denaturing sequencing Castaway gel with 32 preformed wells from Stratagene in 1×TBE at 2000 V. Gels were dried according to the manufacturer and exposed to a storage phosphor screen (Molecular Dynamics). Quantitation and data analysis were carried out as described in Dervan, WO 98/50582, 1998."}, "[3]": {"target": "target sequence AAAAAGCAAAAA (351 bp fragment, Plasmid A)", "assay": "Quantitative DNase I footprint titration", "type": "binding", "settings": "351 bp A, 22° C., pH 7.0, read-out: Dissociation Constant Kd", "excerpt": "as §2, §3, §4, §5, §6"}, "[4]": {"target": "target sequence AAAAAGACAAAAA (351 bp fragment, Plasmid A)", "assay": "Quantitative DNase I footprint titration", "type": "binding", "settings": "351 bp A, 22° C., pH 7.0, read-out: Dissociation Constant Kd", "excerpt": "as §2, §3, §4, §5, §6"}, "[5]": {"tested_on": "Enterococcus faecium ATCC 51559", "assay": "NCCLS broth microdilution MIC", "type": "cell-based", "settings": "Col. D = E. faecium ATCC 51559 (VRE)", "excerpt": "as §1"}, "[6]": {"tested_on": "Streptococcus pneumoniae ATCC 51422", "assay": "NCCLS broth microdilution MIC", "type": "cell-based", "settings": "Col. E = S. pneumoniae ATCC 51422 (PRSP)", "excerpt": "as §1"}, "S. aureus ATCC 33591": {"tested_on": "S. aureus ATCC 33591", "assay": "NCCLS broth microdilution MIC", "type": "cell-based, Staphylococcus aureus", "settings": "Col. B = S. aureus ATCC 33591 (MRSA)", "excerpt": "as §1"}, "S. aureus ATCC 27660": {"tested_on": "S. aureus ATCC 27660", "assay": "NCCLS broth microdilution MIC", "type": "cell-based, Staphylococcus aureus", "settings": "Col. A = S. aureus ATCC 27660 (MRSA)", "excerpt": "as §1"}, "[7]": {"target": "target sequence ATTACT (310 bp fragment, Plasmid B)", "assay": "Quantitative DNase I footprint titration", "type": "binding", "settings": "310 bp B, 22° C., pH 7.0, read-out: Dissociation Constant Kd", "excerpt": "as §2, §3, §4, §5, §6"}, "[8]": {"target": "target sequence AATTAATCAT (352 bp fragment, Plasmid C)", "assay": "Quantitative DNase I footprint titration", "type": "binding", "settings": "352 bp C, 22° C., pH 7.0, read-out: Dissociation Constant Kd", "excerpt": "as §2, §3, §4, §5, §6"}, "[9]": {"target": "target sequence AATACT (310 bp fragment, Plasmid B)", "assay": "Quantitative DNase I footprint titration", "type": "binding", "settings": "310 bp B, 22° C., pH 7.0, read-out: Dissociation Constant Kd", "excerpt": "as §2, §3, §4, §5, §6"}},
  "note": "pKd: −log10 of the molar value.",
  "data": [
    {"compound": "CN(C)CCCNC(=O)CCNC(=O)c1cc(NC(=O)c2cc(NC(=O)CCNC(=O)c3cc(NC(=O)c4cc(NC(=O)c5cc(Br)c(Br)s5)cn4C)cn3C)cn2C)cn1C", "note": "[Compound 1]", "values": [
      {"measurement": "Minimum Inhibitory Concentration (MIC)", "setting": "[1]", "result": ">32", "unit": "µg/mL"},
      {"measurement": "pKd", "setting": "[2]", "result": 8.70},
      {"measurement": "pKd", "setting": "[3]", "result": 11.00},
      {"measurement": "pKd", "setting": "[4]", "result": 11.00},
      {"measurement": "Minimum Inhibitory Concentration (MIC)", "setting": "[5]", "result": "− (− = MIC > 2)"},
      {"measurement": "Minimum Inhibitory Concentration (MIC)", "setting": "[6]", "result": "++ (++ = MIC ≦ 1)"},
      {"measurement": "Minimum Inhibitory Concentration (MIC)", "setting": "S. aureus ATCC 33591", "result": "+ (+ = MIC ≦ 2)"},
      {"measurement": "Minimum Inhibitory Concentration (MIC)", "setting": "S. aureus ATCC 27660", "result": "++ (++ = MIC ≦ 1)"}
    ]},
    {"compound": "Cc1cc(NC(=O)c2cc(NC(=O)c3cc(NC(=O)c4nsc(NCCN5CCCCC5)c4Cl)cn3C)cn2C)sn1", "note": "[Compound 13]", "values": [
      {"measurement": "Minimum Inhibitory Concentration (MIC)", "setting": "[1]", "result": ">32", "unit": "µg/mL"},
      {"measurement": "pKd", "setting": "[7]", "result": 8.30},
      {"measurement": "pKd", "setting": "[8]", "result": 8.00},
      {"measurement": "Minimum Inhibitory Concentration (MIC)", "setting": "S. aureus ATCC 27660", "result": "++ (++ = MIC ≦ 1)"}
    ]},
    {"compound": "Cn1cc(NC(=O)c2cc(NC(=O)c3cc(NC(=O)c4ccc(Cl)cc4F)c[nH]3)cn2C)cc1C(=O)NCCN1CCOCC1", "note": "[Compound 10]", "values": [
      {"measurement": "Minimum Inhibitory Concentration (MIC)", "setting": "[1]", "result": "8 to 32", "unit": "µg/mL"},
      {"measurement": "pKd", "setting": "[9]", "result": 8.30},
      {"measurement": "pKd", "setting": "[8]", "result": 9.00},
      {"measurement": "Minimum Inhibitory Concentration (MIC)", "setting": "[5]", "result": "+ (+ = MIC ≦ 2)"},
      {"measurement": "Minimum Inhibitory Concentration (MIC)", "setting": "[6]", "result": "− (− = MIC > 2)"},
      {"measurement": "Minimum Inhibitory Concentration (MIC)", "setting": "S. aureus ATCC 33591", "result": "− (− = MIC > 2)"},
      {"measurement": "Minimum Inhibitory Concentration (MIC)", "setting": "S. aureus ATCC 27660", "result": "+ (+ = MIC ≦ 2)"}
    ]}
  ]
}
